Test results reported in publication PMC7471899 (2020).
Values joined by “and” are separate entries in the source; they are usually repeats but may differ in a detail not shown here. Equal values may be shown once.

What was measured:
[1] = tested on: 22_TERRA (RNA, G4) AGGGUUAGGGUUAGGGUUAGGG; test: fluorescent intercalator displacement (FID); conditions: 10 mM KCl + 10 mM potassium phosphate (20 mM K+); pH 7, room temperature; 0.25 µM RNA; 0.5 µM thiazole orange displaced
[2] = tested on: 26_ds (RNA, hairpin) CAAUCGGAUCGAAUUCGAUCCGAUUG; test: fluorescent intercalator displacement (FID); conditions: 10 mM KCl + 10 mM potassium phosphate (20 mM K+); pH 7, room temperature; 0.25 µM RNA; 0.5 µM thiazole orange displaced
[3] = tested on: 22_TERRA_2Ap7 (RNA, G4, 2-aminopurine at 7) AGGGUUAGGGUUAGGGUUAGGG; test: 2-aminopurine fluorescence quenching; conditions: 10 mM KCl + 10 mM potassium phosphate; pH 7.0, room temperature; 2.5 μM RNA; 2.5 or 5 μM compound
[4] = tested on: 22_TERRA_2Ap13 (RNA, G4, 2-aminopurine at 13) AGGGUUAGGGUUAGGGUUAGGG; test: 2-aminopurine fluorescence quenching; conditions: 10 mM KCl + 10 mM potassium phosphate; pH 7.0, room temperature; 2.5 μM RNA; 2.5 or 5 μM compound
[5] = tested on: 22_TERRA_2Ap19 (RNA, G4, 2-aminopurine at 19) AGGGUUAGGGUUAGGGUUAGGG; test: 2-aminopurine fluorescence quenching; conditions: 10 mM KCl + 10 mM potassium phosphate; pH 7.0, room temperature; 2.5 μM RNA; 2.5 or 5 μM compound

## C(=NC(COCc1ccc(COCC(N=Cc2ccccn2)c2ccccc2)cc1)c1ccccc1)c1ccccn1.C(=NC(COCc1ccc(COCC(N=Cc2ccccn2)c2ccccc2)cc1)c1ccccc1)c1ccccn1.C(=NC(COCc1ccc(COCC(N=Cc2ccccn2)c2ccccc2)cc1)c1ccccc1)c1ccccn1.[Fe+2].[Fe+2] (stereo not shown) [5a]
[1]
  DC50: 470 ± 50 nM and 570 ± 60 nM
[2]
  DC50: 720 ± 20 nM and 950 ± 80 nM

## C(=NC(COCc1ccc(CCc2ccc(COCC(N=Cc3ccccn3)c3ccccc3)cc2)cc1)c1ccccc1)c1ccccn1.C(=NC(COCc1ccc(CCc2ccc(COCC(N=Cc3ccccn3)c3ccccc3)cc2)cc1)c1ccccc1)c1ccccn1.C(=NC(COCc1ccc(CCc2ccc(COCC(N=Cc3ccccn3)c3ccccc3)cc2)cc1)c1ccccc1)c1ccccn1.[Fe+2].[Fe+2] (stereo not shown) [5g]
[1]
  DC50: 510 ± 30 nM and 570 ± 50 nM
[2]
  DC50: 780 ± 40 nM and 770 ± 50 nM

## C(=NC(COCc1ccc(Cc2ccc(COCC(N=Cc3ccccn3)c3ccccc3)cc2)cc1)c1ccccc1)c1ccccn1.C(=NC(COCc1ccc(Cc2ccc(COCC(N=Cc3ccccn3)c3ccccc3)cc2)cc1)c1ccccc1)c1ccccn1.C(=NC(COCc1ccc(Cc2ccc(COCC(N=Cc3ccccn3)c3ccccc3)cc2)cc1)c1ccccc1)c1ccccn1.[Fe+2].[Fe+2] (stereo not shown) [5f]
[1]
  DC50: 470 ± 50 nM and 600 ± 60 nM
[2]
  DC50: 720 ± 70 nM and 800 ± 50 nM

## C(=NC(COCc1ccc2oc3ccc(COCC(N=Cc4ccccn4)c4ccccc4)cc3c2c1)c1ccccc1)c1ccccn1.C(=NC(COCc1ccc2oc3ccc(COCC(N=Cc4ccccn4)c4ccccc4)cc3c2c1)c1ccccc1)c1ccccn1.C(=NC(COCc1ccc2oc3ccc(COCC(N=Cc4ccccn4)c4ccccc4)cc3c2c1)c1ccccc1)c1ccccn1.[Fe+2].[Fe+2] (stereo not shown) [5h]
[1]
  DC50: 630 ± 40 nM and 640 ± 50 nM
[2]
  DC50: 870 ± 60 nM and 890 ± 20 nM

## C(=NC(COCc1ccc(Oc2ccc(COCC(N=Cc3ccccn3)c3ccccc3)cc2)cc1)c1ccccc1)c1ccccn1.C(=NC(COCc1ccc(Oc2ccc(COCC(N=Cc3ccccn3)c3ccccc3)cc2)cc1)c1ccccc1)c1ccccn1.C(=NC(COCc1ccc(Oc2ccc(COCC(N=Cc3ccccn3)c3ccccc3)cc2)cc1)c1ccccc1)c1ccccn1.[Fe+2].[Fe+2] (stereo not shown) [5d]
[1]
  DC50: 590 ± 10 nM and 610 ± 20 nM
[2]
  DC50: 760 ± 30 nM and 820 ± 30 nM

## C(=NC(COCc1ccc(Sc2ccc(COCC(N=Cc3ccccn3)c3ccccc3)cc2)cc1)c1ccccc1)c1ccccn1.C(=NC(COCc1ccc(Sc2ccc(COCC(N=Cc3ccccn3)c3ccccc3)cc2)cc1)c1ccccc1)c1ccccn1.C(=NC(COCc1ccc(Sc2ccc(COCC(N=Cc3ccccn3)c3ccccc3)cc2)cc1)c1ccccc1)c1ccccn1.[Fe+2].[Fe+2] (stereo not shown) [5e]
[1]
  DC50: 680 ± 30 nM and 660 ± 20 nM
[2]
  DC50: 910 ± 40 nM and 930 ± 30 nM

## C(=NC(COCc1cccc(COCC(N=Cc2ccccn2)c2ccccc2)c1)c1ccccc1)c1ccccn1.C(=NC(COCc1cccc(COCC(N=Cc2ccccn2)c2ccccc2)c1)c1ccccc1)c1ccccn1.C(=NC(COCc1cccc(COCC(N=Cc2ccccn2)c2ccccc2)c1)c1ccccc1)c1ccccn1.[Fe+2].[Fe+2] (stereo not shown) [5b]
[1]
  DC50: 410 ± 40 nM and 270 ± 20 nM
[2]
  DC50: 1470 ± 90 nM and 1580 ± 100 nM
[3]
  binding: yes
[4]
  binding: yes
[5]
  binding: yes

## C(=NC(COCc1ccc(-c2ccc(COCC(N=Cc3ccccn3)c3ccccc3)cc2)cc1)c1ccccc1)c1ccccn1.C(=NC(COCc1ccc(-c2ccc(COCC(N=Cc3ccccn3)c3ccccc3)cc2)cc1)c1ccccc1)c1ccccn1.C(=NC(COCc1ccc(-c2ccc(COCC(N=Cc3ccccn3)c3ccccc3)cc2)cc1)c1ccccc1)c1ccccn1.[Fe+2].[Fe+2] (stereo not shown) [5c]
[1]
  DC50: 590 ± 40 nM and 690 ± 60 nM
[2]
  DC50: 830 ± 40 nM and 900 ± 70 nM
